The TGI is the concentration giving total growth inhibition. A low value points to more potent growth arrest.

From PubChem BioAssay (NCI) come the findings set out here.

Each structure is given as a SMILES string.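 Each compound was tested at five concentrations against cells in 96-well plates for 48 hours. TGI: total growth inhibition.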 Some results are limits rather than exact numbers.

Some test systems named below: SK-MEL-28 melanoma; COLO 205 colon; HOP-62 NSCLC; UACC-257 melanoma; MALME-3M melanoma; HCT-15 colon; SF-539 CNS; SK-OV-3 ovarian; A549 NSCLC; T-47D breast; SR leukemia; KM12 colon.
Experiment in all cases: DTP human tumour cell line panel, 48 h

In the case of `COc1cc2c(cc1OC)C(=O)N(c1ccc(O)cc1)C2=O`, the TGI in the experiment on SK-MEL-28 melanoma, in the experiment on COLO 205 colon, in the experiment with HOP-62 NSCLC, in the experiment with UACC-257 melanoma, with MALME-3M melanoma and in the experiment with HCT-15 colon was greater than 100 µM each time. Further, the TGI with SF-539 CNS, with SK-OV-3 ovarian, in the experiment with A549 NSCLC, with T-47D breast and with SR leukemia was greater than 100 µM throughout.
Regarding `Cc1c2c3ccccc3nc-2n(C)c2ccccc12`, the TGI was 12.5 µM in the experiment on SK-MEL-28 melanoma; 31.9 µM in the experiment with HOP-62 NSCLC; 8.05 µM in the experiment with UACC-257 melanoma; 5.98 µM in the experiment with MALME-3M melanoma; 11.3 µM in the experiment with HCT-15 colon; 10.8 µM in the experiment on SF-539 CNS. Moreover, the TGI turned out to be 7.22 µM in the experiment on SK-OV-3 ovarian; 9.19 µM in the experiment with A549 NSCLC; 41.3 µM with T-47D breast; 25.2 µM in the experiment with SR leukemia; 7.91 µM in the experiment with KM12 colon.
For the molecule `O=C(OC1C2OC(=O)c3cc(O)c(O)c(O)c3Oc3cc4c(c(O)c3O)-c3c(cc(O)c(O)c3O)C(=O)OCC3OC(O)C(OC(=O)c5cc(O)c(O)c(O)c5Oc5cc6c(c(O)c5O)-c5c(cc(O)c(O)c5O)C(=O)OC1C(COC6=O)OC2O)C(OC(=O)c1cc(O)c(O)c(O)c1)C3OC4=O)c1cc(O)c(O)c(O)c1` (stereo not drawn), the TGI with SK-MEL-28 melanoma was greater than 100 µM; in the experiment on COLO 205 colon, 54 µM; with HOP-62 NSCLC, 54.3 µM; in the experiment on UACC-257 melanoma it was greater than 100 µM; with MALME-3M melanoma, greater than 100 µM; in the experiment on SF-539 CNS, 65.6 µM. Further, the TGI was 44.4 µM with SK-OV-3 ovarian; 39.7 µM in the experiment on A549 NSCLC; greater than 100 µM with T-47D breast; 27.3 µM in the experiment with SR leukemia; 16.2 µM with KM12 colon.
Take `c1cc2c(cc1NC1=NCCO1)OCO2`: the TGI in the experiment with SK-MEL-28 melanoma, with COLO 205 colon, in the experiment with HOP-62 NSCLC, in the experiment with MALME-3M melanoma, in the experiment on HCT-15 colon and in the experiment with SF-539 CNS was greater than 100 µM throughout. Besides, the TGI in the experiment with SK-OV-3 ovarian, in the experiment with A549 NSCLC, in the experiment with T-47D breast, in the experiment with SR leukemia and in the experiment with KM12 colon was greater than 100 µM throughout.
Regarding `COc1ccc(-n2[nH]nc(C(N)=O)c2=O)cc1`, the TGI in the experiment on SK-MEL-28 melanoma, with COLO 205 colon, with HOP-62 NSCLC, in the experiment on UACC-257 melanoma, in the experiment on MALME-3M melanoma and in the experiment with HCT-15 colon was greater than 100 µM each time. For the same molecule, the TGI in the experiment on SK-OV-3 ovarian, with A549 NSCLC, with T-47D breast, with SR leukemia and in the experiment with KM12 colon was greater than 100 µM each time.
`Cc1ccc(SC2C(=O)C3CC(OCc4ccccc4)C2(C)C3(C)C)cc1` (stereo not drawn): the TGI in the experiment on SK-MEL-28 melanoma, in the experiment with HOP-62 NSCLC, in the experiment on MALME-3M melanoma, in the experiment with HCT-15 colon, with SF-539 CNS and in the experiment on SK-OV-3 ovarian was greater than 100 µM throughout. Also, the total growth inhibition concentration (TGI) with A549 NSCLC, with T-47D breast, with SR leukemia and with KM12 colon was greater than 100 µM each time.
Take `Cc1cnc2sn(-c3ccc([N+](=O)[O-])cc3)c(=O)c2c1`: the TGI in the experiment with SK-MEL-28 melanoma is greater than 100 µM; with COLO 205 colon, greater than 100 µM; with HOP-62 NSCLC, 52.4 µM; in the experiment on MALME-3M melanoma it was greater than 100 µM; in the experiment with HCT-15 colon, greater than 100 µM; in the experiment with SK-OV-3 ovarian, 81.4 µM. For the same molecule, the TGI in the experiment on A549 NSCLC, with T-47D breast, in the experiment with SR leukemia and in the experiment with KM12 colon was greater than 100 µM throughout.
As to `O=C1c2cc(Cl)ccc2NC(=NC2CCCC2)C2CSCN12` (stereo not drawn), the TGI in the experiment with SK-MEL-28 melanoma, in the experiment on COLO 205 colon, in the experiment with HOP-62 NSCLC, with UACC-257 melanoma, in the experiment with MALME-3M melanoma and in the experiment with HCT-15 colon was greater than 100 µM throughout. The concentration for total growth inhibition (TGI) in the experiment on SK-OV-3 ovarian, with A549 NSCLC, in the experiment on T-47D breast, with SR leukemia and with KM12 colon was greater than 100 µM each time.
On to `O=C1c2ccccc2C(=O)c2cc(N=Nc3c(O)ccc4ccccc34)ccc21`, for which the TGI in the experiment with SK-MEL-28 melanoma, in the experiment on COLO 205 colon, in the experiment with HOP-62 NSCLC, with UACC-257 melanoma, with MALME-3M melanoma and in the experiment on HCT-15 colon was greater than 100 µM each time. In addition, the TGI with SK-OV-3 ovarian, in the experiment on A549 NSCLC, in the experiment with T-47D breast, with SR leukemia and in the experiment on KM12 colon was greater than 100 µM throughout.
For the molecule `c1cc2c(s1)-c1sccc1C21OCCO1`, the TGI with SK-MEL-28 melanoma, in the experiment with COLO 205 colon, in the experiment on HOP-62 NSCLC, in the experiment on UACC-257 melanoma, in the experiment on MALME-3M melanoma and in the experiment on HCT-15 colon was greater than 100 µM throughout. Besides, the TGI with SF-539 CNS is greater than 100 µM; with A549 NSCLC it was greater than 100 µM; in the experiment on T-47D breast it was 80.9 µM; in the experiment with SR leukemia it was greater than 100 µM; in the experiment with KM12 colon, greater than 100 µM.
